# Legend:
# rat primary astrocytes = experiment: Cell viability by CV test, primary astrocytes; assay type: cell-based; conditions: 24 h, Sag at its IC50 dose
# From the text: Rat glioma C6 and human glioblastoma U251 cell lines were a kind gift from Dr. Pedro Tranque (Universidad de Castilla-La Mancha, Albacete, Spain), murine melanoma B 16, and human adenocarcinoma HeLa, were a kind gift from Dr. Sinisa Radulovic (Institute for Oncology and Radiology of Serbia, Belgrade, Serbia) while mouse fibrosarcoma L929 was obtained from the European Collection of Animal Cell Cultures (Salisbury, UK). Human breast HCC1419 and prostate PC-3 cells were purchased from LGC Promochem srl (Venezia, Italy). Primary mouse fibroblasts and rat astrocytes were prepared as described (Mijatovic et al. 2004). […]
# Reduction of 3-4,5-dimethylthiazol-2-yl)-2,5-diphenyltetrazolium bromide (MTT) to formazan depends on mitochondrial activity of cultured cells, absorption of crystal violet dye correlates with the number of adherent, live cells, while the release of cytosolic lactate dehydrogenase (LDH) indicates the disruption of membrane integrity caracteristic for necrotic cells. […] Mitohondrial-dependent production of formazan and intensity of absorbed crystal violet by adherent cells were assessed by an automated microplate reader at 570 nm, while the pyruvate-mediated conversion of 2,4-dinitrophenylhydrazine into visible hydrazone precipitate in LDH assay was measured at 492 nm. […]
# FIG. 2. […] Cell viability was then evaluated by CV test. […]
# Tumor cells = experiment: Viability recovery after drug withdrawal (CV test); assay type: cell-based; conditions: 18.8 μM for 24 h, drug removed, additional 24 h
# Experimental: Reduction of 3-4,5-dimethylthiazol-2-yl)-2,5-diphenyltetrazolium bromide (MTT) to formazan depends on mitochondrial activity of cultured cells, absorption of crystal violet dye correlates with the number of adherent, live cells, while the release of cytosolic lactate dehydrogenase (LDH) indicates the disruption of membrane integrity caracteristic for necrotic cells. The cells were seeded in flat-bottom 96-well plates in a final volume of 200 μl of culture medium containing different agents, and the assays were performed after 24 h incubation exactly as previously described (Mijatovic et al. 2004, Decker et al., 1998). Mitohondrial-dependent production of formazan and intensity of absorbed crystal violet by adherent cells were assessed by an automated microplate reader at 570 nm, while the pyruvate-mediated conversion of 2,4-dinitrophenylhydrazine into visible hydrazone precipitate in LDH assay was measured at 492 nm. The % of cytotoxicity as indicated by LDH release was calculated as: (E−C)/(T−C)×100, where E is the experimental absorbance of cell cultures, C is the control absorbance of cell-free culture medium, and T is the absorbance corresponding to the maximal (100%) LDH release of Triton-lysed cells.
# FIG. 4. […] Results are calculated as indicated in materials and methods and presented as mean±SD from representative of three independent experiment (*p <0.05). […]
# C6 cells = experiment: Differentiation markers by cell-based ELISA, C6; parameters: species or system rat; conditions: 18.8 μM, 24 h
# From the text: A slightly modified method for cell-based ELISA (cELISA) by Versteeg (Versteed et al., 2000) was used to measure the expression of galactocerebroside, glial fibrilar acidic protein (GFAP), myelin basic protein (MBP), cyclin D3, p53 and p-AKT. Briefly, at the end of cultivation period cells were fixed in 4% paraformaldehyde, endogenous peroxydase was quenched with 1% H2O2 in PBS containing 0.1% Triton X-100 (PBST), and unspecific binding of antibodies blocked with PBST solution containing 10% FCS. Primary mouse monoclonal antibodies specific for rat/mouse p-Akt (1:200; Santa Cruz Biotechnology, Santa Cruz, Calif.), GFAP (1:200, BioYeda, Israel.), galactocerebroside (1:100; Boehringer Mannheim, Mannheim, Germany), MBP (1:100, Boehringer Mannheim, Mannheim, Germany), cyclin D3 (1:750, Santa Cruz Biotechnology, Santa Cruz, Calif.) and p53 (1:250, Santa Cruz Biotechnology, Santa Cruz, Calif.) were applied in PBST supplemented with 2% bovine serum albumin (PBSTB), followed by secondary peroxidase-conjugated goat anti-mouse IgG (1:2500 in PBSTB; GE Healthcare UK) for anti-GFAP and galactocerebroside or anti-rabbit IgG (1:2500, Healthcare UK) for anti-p-Akt, anti-cyclin D3 and anti-p53. All incubations were performed at 37° C. for 1 h. The absorbance at 450 nm was measured in an automated microplate reader 15 min after incubation with peroxydase substrate TMB and subsequently to addition of 0.1 M HCl. To facilitate comparison between treatments, the obtained absorbances were corrected for the cell number that was determined by crystal violet staining, as described in the original protocol. The results are presented as relative expression in comparison with the control value.
# FIG. 5. […] Cell morphology was assessed by light microscopy (A). Markers of cell differentiation of C6 and B16 cells, galactocerebroside, GFAP and MBP were determined by cELISA and melanin and tyrosinase activity were determined as described in material and methods (B). Cyclin D3 and p53 expression were evaluated by cELISA (C, upper panels), immunocytochemistry (C, middle panel) and Western blot (C, lower panel). The results were presented as mean±SD from three independent experiments. *p<0.05, refers to untreated cultures.
# B16 melanoma = B16 melanoma growth in syngeneic C57BL/6 mice; assay type: in vivo, mouse; conditions: 10 mg/kg i.p.; for animals that developed tumors at autopsy: day 30 post tumor challenge
# Experimental: In order to induce primary tumor 2×10^5 B16 melanoma cells were injected subcutaneously (s.c) in the dorsal right lumbosacral region of syngeneic C57BL/6 mice. Tumor growth was observed daily, and the drug treatment started from day 10 after implantation. […] Mice were sacrificed on day 30, tumor growth was determined by three-dimensional measurements of individual tumors from each mouse. Tumor volume was calculated as: [0.52×a×b^2], where a is the longest and b is the shortest diameter as described previously (Maksimovic-Ivanic et al. 2008).
# FIG. 7. […] Tumor volumes were determined 30 days after tumor implantation, as indicated in Materials and methods.
# [1] = 15 consecutive days from day 10
Compound,effect on viability of non-transformed primary astrocytes (rat primary astrocytes),recovery of viability after drug withdrawal (Tumor cells),expression of GFAP (C6 cells),expression of galactocerebroside (C6 cells),animals without tumors with strong inflammation of peritoneum (B16 melanoma; 15 consecutive days),loss of body weight from initial body weight (B16 melanoma; 15 consecutive days),"tumor volume (B16 melanoma; 15 consecutive days from day 10, day 30)",animals that developed tumors at autopsy (B16 melanoma; [1]),"raise of body weight, of initial body weight (B16 melanoma; 15 consecutive days)",visible signs of toxicity (B16 melanoma; 15 consecutive days)
"CC(C)(C)NC(=O)[C@@H]1C[C@@H]2CCCC[C@@H]2CN1C[C@@H](O)[C@H](Cc1ccccc1)NC(=O)[C@H](CC(N)=O)NC(=O)c1ccc2ccccc2n1 [Saq, Saquinavir, reference compound]",highly toxic,mainly restored the viability,decreased or unchanged,strongly up regulated,4 animals,10%,significantly reduced volume,3/9,–,–
"CC(C)(C)NC(=O)[C@@H]1C[C@@H]2CCCC[C@@H]2CN1C[C@@H](O[N+](=O)[O-])[C@H](Cc1ccccc1)NC(=O)[C@H](CC(N)=O)NC(=O)c1ccc2ccccc2n1 [Saq-NO2, nitric ester of Saquinavir]",did not affect the viability,very mild recovering,decreased or unchanged,strongly up regulated,–,–,–,one,13%,no any visible signs of toxicity
